Drawing on US9302988B2, “Fluoromethyl-substituted pyrrole carboxamides” (GRÜNENTHAL GMBH, priority 2012, dated 2016), this text covers inhibition for 29 compounds.

Structures are written as SMILES.

In this assay the target is T1, Human CaV2.2 channels (Homo sapiens, UniProt Q00975).
T1 construct: expressed in transfected cells
Put plainly: Fluorescent assay for CaV2.2 channels using potassium depolarization to induce channel opening (FLIPR, Fluo-4). The format is cell-based. Conditions: 3 μM test compound, 30 mM KCl, HEK293 cells stably expressing human CaV2.2; read-out: %-Inhib (CaV2.2) @3 μM @30 mM KCl. In outline: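 Channel block was read as the baseline-normalized peak Ca²⁺ signal (Fluo-4, 480/535 nm) after a high-KCl depolarizing addition (210 mM KCl buffer). Beforehand, compound sat 15 min at 25 °C on HEK293 cells carrying human CaV2.2, α2δ/β subunits and Kir2.3, in pH 7.4 buffer with 30 mM KCl.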

T1 sequence (Q00975 whole entry): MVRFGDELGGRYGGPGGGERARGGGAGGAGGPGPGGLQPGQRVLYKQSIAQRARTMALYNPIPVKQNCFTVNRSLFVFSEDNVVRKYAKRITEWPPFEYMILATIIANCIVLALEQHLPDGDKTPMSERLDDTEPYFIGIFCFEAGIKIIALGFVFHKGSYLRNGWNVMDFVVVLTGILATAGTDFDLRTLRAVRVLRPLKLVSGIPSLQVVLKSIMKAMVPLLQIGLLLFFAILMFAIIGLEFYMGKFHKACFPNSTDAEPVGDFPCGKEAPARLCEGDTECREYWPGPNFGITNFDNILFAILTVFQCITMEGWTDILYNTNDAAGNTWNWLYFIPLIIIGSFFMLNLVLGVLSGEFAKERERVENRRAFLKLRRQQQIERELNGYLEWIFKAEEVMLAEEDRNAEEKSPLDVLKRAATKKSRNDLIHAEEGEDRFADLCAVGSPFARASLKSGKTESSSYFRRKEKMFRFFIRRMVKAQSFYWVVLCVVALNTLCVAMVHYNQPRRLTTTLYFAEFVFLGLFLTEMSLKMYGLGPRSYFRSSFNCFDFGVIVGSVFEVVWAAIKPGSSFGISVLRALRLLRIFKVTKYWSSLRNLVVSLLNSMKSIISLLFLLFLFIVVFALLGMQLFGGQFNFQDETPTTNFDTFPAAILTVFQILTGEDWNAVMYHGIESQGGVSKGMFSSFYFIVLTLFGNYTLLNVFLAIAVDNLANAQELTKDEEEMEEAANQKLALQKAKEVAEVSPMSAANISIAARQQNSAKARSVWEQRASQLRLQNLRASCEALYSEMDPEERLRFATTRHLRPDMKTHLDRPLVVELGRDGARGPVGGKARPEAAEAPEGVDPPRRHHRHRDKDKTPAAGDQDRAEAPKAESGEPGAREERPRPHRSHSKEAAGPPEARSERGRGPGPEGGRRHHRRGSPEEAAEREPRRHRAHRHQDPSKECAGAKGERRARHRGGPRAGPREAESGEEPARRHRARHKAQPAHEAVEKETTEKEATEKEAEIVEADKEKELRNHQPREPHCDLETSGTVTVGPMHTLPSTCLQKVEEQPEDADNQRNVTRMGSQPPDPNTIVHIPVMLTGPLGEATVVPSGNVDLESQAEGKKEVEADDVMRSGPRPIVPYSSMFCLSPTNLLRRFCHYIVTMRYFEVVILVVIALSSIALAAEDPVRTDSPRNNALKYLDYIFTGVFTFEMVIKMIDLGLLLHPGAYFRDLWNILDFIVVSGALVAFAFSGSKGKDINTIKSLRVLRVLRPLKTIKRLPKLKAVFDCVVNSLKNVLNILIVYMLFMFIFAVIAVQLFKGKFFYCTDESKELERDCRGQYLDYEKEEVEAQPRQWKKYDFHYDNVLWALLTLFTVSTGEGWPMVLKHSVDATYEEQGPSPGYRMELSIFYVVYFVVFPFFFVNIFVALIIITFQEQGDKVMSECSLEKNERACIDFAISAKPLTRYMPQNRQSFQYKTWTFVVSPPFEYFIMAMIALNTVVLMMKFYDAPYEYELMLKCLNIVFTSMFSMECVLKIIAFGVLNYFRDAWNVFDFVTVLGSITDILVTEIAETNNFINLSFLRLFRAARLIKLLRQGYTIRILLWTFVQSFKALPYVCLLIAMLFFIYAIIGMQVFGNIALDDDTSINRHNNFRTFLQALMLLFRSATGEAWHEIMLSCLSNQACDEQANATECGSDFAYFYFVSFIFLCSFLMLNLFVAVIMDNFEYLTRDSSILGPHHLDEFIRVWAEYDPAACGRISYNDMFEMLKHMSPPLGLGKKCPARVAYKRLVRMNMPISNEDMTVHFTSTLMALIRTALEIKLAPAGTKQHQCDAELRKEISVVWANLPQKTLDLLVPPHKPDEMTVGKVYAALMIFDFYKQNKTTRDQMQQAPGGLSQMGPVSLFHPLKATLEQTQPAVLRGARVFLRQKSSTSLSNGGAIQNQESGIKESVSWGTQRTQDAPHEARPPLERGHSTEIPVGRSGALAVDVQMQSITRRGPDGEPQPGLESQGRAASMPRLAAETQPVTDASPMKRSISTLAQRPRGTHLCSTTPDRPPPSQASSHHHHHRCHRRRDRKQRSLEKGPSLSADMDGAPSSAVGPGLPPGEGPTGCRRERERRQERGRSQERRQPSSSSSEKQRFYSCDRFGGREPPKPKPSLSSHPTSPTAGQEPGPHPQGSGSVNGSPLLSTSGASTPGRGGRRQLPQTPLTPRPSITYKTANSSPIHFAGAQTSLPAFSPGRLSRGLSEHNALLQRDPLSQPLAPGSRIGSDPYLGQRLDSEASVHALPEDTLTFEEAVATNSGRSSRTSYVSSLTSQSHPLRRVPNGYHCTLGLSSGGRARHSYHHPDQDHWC
T1 sequence (P54289 25-1103, further chain): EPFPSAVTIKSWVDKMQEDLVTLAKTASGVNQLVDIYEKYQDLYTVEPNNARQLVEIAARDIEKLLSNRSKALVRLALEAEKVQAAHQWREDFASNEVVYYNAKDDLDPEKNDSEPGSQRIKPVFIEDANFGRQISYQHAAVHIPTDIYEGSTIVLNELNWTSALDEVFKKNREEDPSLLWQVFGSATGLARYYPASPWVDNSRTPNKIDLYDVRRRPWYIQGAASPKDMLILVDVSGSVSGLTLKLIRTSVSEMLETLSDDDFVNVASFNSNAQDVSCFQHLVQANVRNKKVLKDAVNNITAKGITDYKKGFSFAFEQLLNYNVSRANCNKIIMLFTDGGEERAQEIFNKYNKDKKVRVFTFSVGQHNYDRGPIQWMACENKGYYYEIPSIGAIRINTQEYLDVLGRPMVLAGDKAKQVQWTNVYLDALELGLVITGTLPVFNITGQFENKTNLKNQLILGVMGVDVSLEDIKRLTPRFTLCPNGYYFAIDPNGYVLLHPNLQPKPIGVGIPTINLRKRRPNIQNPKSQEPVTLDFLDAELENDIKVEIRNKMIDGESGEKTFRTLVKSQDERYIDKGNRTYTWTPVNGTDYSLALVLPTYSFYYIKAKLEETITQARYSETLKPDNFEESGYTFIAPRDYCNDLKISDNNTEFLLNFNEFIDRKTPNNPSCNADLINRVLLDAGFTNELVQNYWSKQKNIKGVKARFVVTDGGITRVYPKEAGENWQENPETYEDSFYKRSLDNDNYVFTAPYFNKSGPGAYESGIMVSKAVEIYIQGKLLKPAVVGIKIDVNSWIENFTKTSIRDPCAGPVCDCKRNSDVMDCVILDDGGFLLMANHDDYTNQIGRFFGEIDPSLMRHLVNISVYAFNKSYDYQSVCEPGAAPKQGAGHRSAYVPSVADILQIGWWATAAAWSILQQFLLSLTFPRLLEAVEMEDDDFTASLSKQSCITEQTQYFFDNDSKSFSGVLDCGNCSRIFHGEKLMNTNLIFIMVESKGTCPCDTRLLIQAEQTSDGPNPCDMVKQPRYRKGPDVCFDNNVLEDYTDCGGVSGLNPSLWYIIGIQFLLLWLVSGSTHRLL
T1 sequence (P54284 whole entry, further chain): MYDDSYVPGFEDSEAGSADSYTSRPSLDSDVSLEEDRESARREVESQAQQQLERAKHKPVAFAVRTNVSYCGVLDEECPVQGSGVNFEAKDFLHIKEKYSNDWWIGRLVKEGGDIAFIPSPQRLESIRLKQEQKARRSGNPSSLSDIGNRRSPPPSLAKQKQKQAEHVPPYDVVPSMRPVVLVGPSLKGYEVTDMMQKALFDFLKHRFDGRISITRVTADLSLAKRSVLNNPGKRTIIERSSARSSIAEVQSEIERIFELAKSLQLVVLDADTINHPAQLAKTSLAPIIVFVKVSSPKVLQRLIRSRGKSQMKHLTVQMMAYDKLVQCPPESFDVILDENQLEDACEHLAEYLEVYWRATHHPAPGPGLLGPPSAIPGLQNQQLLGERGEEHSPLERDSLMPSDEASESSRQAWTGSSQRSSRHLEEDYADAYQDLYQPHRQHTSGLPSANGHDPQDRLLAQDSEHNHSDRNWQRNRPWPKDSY

In the case of `Cc1c(-c2ccc(Cl)cc2)c(C(=O)N(C)C2(C(N)=O)CC2)n(Cc2ccccc2)c1C(F)(F)F` [SC-49, 1-Benzyl-N-(1-carbamoyl-cyclopropyl)-3-(4-chlorophenyl)-N,4-dimethyl-5-(trifluoromethyl)-1H-pyrrole-2-carboxylic acid amide], the inhibition at 3 µM was above 95%.

For the compound `Cc1c(-c2ccc(OC(F)(F)F)cc2)c(C(=O)N2CCOCC2)n(Cc2ccccc2)c1C(F)(F)F` [SC-105, [1-Benzyl-4-methyl-5-(trifluoromethyl)-3-[4-(trifluoromethyloxy)-phenyl]-1H-pyrrol-2-yl]-morpholin-4-yl-methanone], the inhibition at 3 µM was in the range of 75 to 95%.

For the compound `COc1cccc(-n2c(C(=O)N3CC(F)(F)C3)c(-c3ccc(Cl)cc3)c(C)c2C(F)(F)F)c1` [SC-32, [3-(4-Chlorophenyl)-1-(3-methoxyphenyl)-4-methyl-5-(trifluoromethyl)-1H-pyrrol-2-yl]-(3,3-difluoro-azetidin-1-yl)-methanone], the inhibition at 3 µM was 75 to 95%.

In the case of `CN(Cc1ccncn1)C(=O)c1c(-c2ccc(Cl)cc2)cc(C(F)(F)F)n1Cc1ccccc1` [SC-207, 1-Benzyl-3-(4-chlorophenyl)-N-methyl-N-(pyrimidin-4-yl-methyl)-5-(trifluoromethyl)-1H-pyrrole-2-carboxylic acid amide], the inhibition at 3 µM is above 95%.

On to `Cc1c(-c2ccc(Cl)cc2)c(C(=O)N(C)CC(C)(C)C)n(Cc2ccccc2)c1C(F)F` [SC-42, 1-Benzyl-3-(4-chlorophenyl)-5-(difluoro-methyl)-N-(2,2-dimethyl-propyl)-N,4-dimethyl-1H-pyrrole-2-carboxylic acid amide], for which the inhibition at 3 µM is above 95%.

For `Cc1c(-c2ccc(Cl)cc2)c(C(=O)N(C)CC2(O)CC2)n(Cc2ccccc2)c1C(F)(F)F` [SC-65, 1-Benzyl-3-(4-chlorophenyl)-N-[(1-hydroxy-cyclopropyl)-methyl]-N,4-dimethyl-5-(trifluoromethyl)-1H-pyrrole-2-carboxylic acid amide], the inhibition at 3 µM was above 95%.

Regarding `Cc1c(-c2ccc(Cl)cc2)c(C(=O)NC2CC2)n(Cc2ccccc2)c1C(F)(F)F` [SC-35, 1-Benzyl-3-(4-chlorophenyl)-N-cyclopropyl-4-methyl-5-(trifluoromethyl)-1H-pyrrole-2-carboxylic acid amide], the inhibition at 3 µM lay within 75 to 95%.

Take `Cc1c(-c2ccc(Cl)cc2F)c(C(=O)N2CCS(=O)(=O)CC2)n(Cc2ccccc2)c1C(F)(F)F` [SC-173, [1-Benzyl-3-(4-chloro-2-fluoro-phenyl)-4-methyl-5-(trifluoromethyl)-1H-pyrrol-2-yl]-(1,1-dioxo-[1,4]thiazinan-4-yl)-methanone]: the inhibition at 3 µM was above 95%.

On to `CN(CCS(C)(=O)=O)C(=O)c1c(-c2ccc(Cl)cc2)cc(C(F)(F)F)n1Cc1cccc(Cl)c1` [SC-69, 3-(4-Chlorophenyl)-1-[(3-chlorophenyl)-methyl]-N-methyl-N-(2-methylsulfonyl-ethyl)-5-(trifluoromethyl)-1H-pyrrole-2-carboxylic acid amide], for which the inhibition at 3 µM is 75 to 95%.

Consider `Cc1c(-c2ccc(Cl)cc2)c(C(=O)N(C)CCNS(C)(=O)=O)n(Cc2ccccc2)c1C(F)(F)F` [SC-38, 1-Benzyl-3-(4-chlorophenyl)-N-[2-(methanesulfonamido)-ethyl]-N,4-dimethyl-5-(trifluoromethyl)-1H-pyrrole-2-carboxylic acid amide], for which the inhibition at 3 µM was above 95%.

For the compound `Cc1c(-c2ccc(F)cc2)c(C(=O)N(C)C2CC2)n(Cc2ccccc2)c1C(F)(F)F` [SC-221, 1-Benzyl-N-cyclopropyl-3-(4-fluorophenyl)-N,4-dimethyl-5-(trifluoromethyl)-1H-pyrrole-2-carboxylic acid amide], the inhibition at 3 µM was above 95%.

Take `Cc1c(-c2ccc(Cl)cc2F)c(C(=O)N(C)C2CCS(=O)(=O)C2)n(Cc2ccccc2)c1C(F)(F)F` (centres unmarked) [SC-171, 1-Benzyl-3-(4-chloro-2-fluoro-phenyl)-N-(1,1-dioxo-thiolan-3-yl)-N,4-dimethyl-5-(trifluoromethyl)-1H-pyrrole-2-carboxylic acid amide]: the inhibition at 3 µM was above 95%.

Turning to `Cc1c(-c2ccc(Cl)cc2)c(C(=O)N2CC(F)(F)C2)n(-c2cccc(Cl)c2)c1C(F)(F)F` [SC-33, [1-(3-Chlorophenyl)-3-(4-chlorophenyl)-4-methyl-5-(trifluoromethyl)-1H-pyrrol-2-yl]-(3,3-difluoro-azetidin-1-yl)-methanone], the inhibition at 3 µM is 75 to 95%.

In the case of `Cc1c(-c2ccc(Cl)cc2F)c(C(=O)N2CC(O)C2)n(Cc2ccccc2)c1C(F)(F)F` [SC-154, [1-Benzyl-3-(4-chloro-2-fluoro-phenyl)-4-methyl-5-(trifluoromethyl)-1H-pyrrol-2-yl]-(3-hydroxy-azetidin-1-yl)-methanone], the inhibition at 3 µM lay within 75 to 95%.

Take `Cc1c(-c2ccc(Cl)cc2)c(C(=O)N(C)CCS(=O)(=O)C(C)C)n(Cc2ccccc2)c1C(F)(F)F` [SC-130, 1-Benzyl-3-(4-chlorophenyl)-N-[2-(isopropylsulfonyl)-ethyl]-N,4-dimethyl-5-(trifluoromethyl)-1H-pyrrole-2-carboxylic acid amide]: the inhibition at 3 µM was above 95%.

With `CN(C(=O)c1c(-c2ccc(Cl)cc2)cc(C(F)(F)F)n1Cc1ccccc1)C1CCS(=O)(=O)C1` (centres unmarked) [SC-83, 1-Benzyl-3-(4-chlorophenyl)-N-(1,1-dioxo-thiolan-3-yl)-N-methyl-5-(trifluoromethyl)-1H-pyrrole-2-carboxylic acid amide], the inhibition at 3 µM is above 95%.

Consider `CCS(=O)(=O)CCN(C)C(=O)c1c(-c2ccc(Cl)cc2)c(C)c(C(F)(F)F)n1Cc1ccccc1` [SC-132, 1-Benzyl-3-(4-chlorophenyl)-N-[2-(ethylsulfonyl)-ethyl]-N,4-dimethyl-5-(trifluoromethyl)-1H-pyrrole-2-carboxylic acid amide], for which the inhibition at 3 µM is above 95%.

For the compound `Cc1c(-c2ccc(F)cc2)c(C(=O)N(C)CCS(C)(=O)=O)n(Cc2ccccc2)c1C(F)(F)F` [SC-219, 1-Benzyl-3-(4-fluorophenyl)-N,4-dimethyl-N-(2-methylsulfonyl-ethyl)-5-(trifluoromethyl)-1H-pyrrole-2-carboxylic acid amide], the inhibition at 3 µM was above 95%.

In the case of `CCS(=O)(=O)CCN(C)C(=O)c1c(-c2ccc(Cl)cc2)cc(C(F)(F)F)n1Cc1ccccc1` [SC-192, 1-Benzyl-3-(4-chlorophenyl)-N-[2-(ethylsulfonyl)-ethyl]-N-methyl-5-(trifluoromethyl)-1H-pyrrole-2-carboxylic acid amide], the inhibition at 3 µM was above 95%.

In the case of `CN(CC(C)(C)C#N)C(=O)c1c(-c2ccc(Cl)cc2)cc(C(F)(F)F)n1Cc1ccccc1` [SC-187, 1-Benzyl-3-(4-chlorophenyl)-N-(2-cyano-2-methyl-propyl)-N-methyl-5-(trifluoromethyl)-1H-pyrrole-2-carboxylic acid amide], the inhibition at 3 µM is above 95%.

`CN(Cc1nccn1C)C(=O)c1c(-c2ccc(Cl)cc2)cc(C(F)(F)F)n1Cc1ccccc1` [SC-212, 1-Benzyl-3-(4-chlorophenyl)-N-methyl-N-[(1-methyl-1H-imidazol-2-yl)-methyl]-5-(trifluoromethyl)-1H-pyrrole-2-carboxylic acid amide]: the inhibition at 3 µM was above 95%.

As to `Cc1c(-c2ccc(Cl)cc2)c(C(=O)N2CCOC(CO)C2)n(Cc2ccccc2)c1C(F)(F)F` (centres unmarked) [SC-20, [1-Benzyl-3-(4-chlorophenyl)-4-methyl-5-(trifluoromethyl)-1H-pyrrol-2-yl]-[2-(hydroxymethyl)-morpholin-4-yl]-methanone], the inhibition at 3 µM lay within 75 to 95%.

With `Cc1c(-c2ccc(F)cc2)c(C(=O)N(C)CC(C)(C)C)n(Cc2ccccc2)c1C(F)(F)F` [SC-224, 1-Benzyl-N-(2,2-dimethyl-propyl)-3-(4-fluorophenyl)-N,4-dimethyl-5-(trifluoromethyl)-1H-pyrrole-2-carboxylic acid amide], the inhibition at 3 µM was 75 to 95%.

Turning to `Cc1c(-c2ccc(Cl)cc2F)c(C(=O)N(C)C2CCOCC2)n(Cc2ccccc2)c1C(F)(F)F` [SC-156, 1-Benzyl-3-(4-chloro-2-fluoro-phenyl)-N,4-dimethyl-N-tetrahydro-pyran-4-yl-5-(trifluoromethyl)-1H-pyrrole-2-carboxylic acid amide], the inhibition at 3 µM was above 95%.

For the compound `Cc1c(-c2ccc(Cl)cc2)c(C(=O)N(C)CC(C)(C)C)n(Cc2ccccc2)c1C(F)(F)F` [SC-04, 1-Benzyl-3-(4-chlorophenyl)-N-(2,2-dimethyl-propyl)-N,4-dimethyl-5-(trifluoromethyl)-1 H-pyrrole-2-carboxylic acid amide], the inhibition at 3 µM was in the range of 75 to 95%.

On to `CN(CC(C)(C)C)C(=O)c1c(-c2ccc(Cl)cc2F)cc(C(F)(F)F)n1Cc1ccccc1` [SC-88, 1-Benzyl-3-(4-chloro-2-fluoro-phenyl)-N-(2,2-dimethyl-propyl)-N-methyl-5-(trifluoromethyl)-1H-pyrrole-2-carboxylic acid amide], for which the inhibition at 3 µM was in the range of 75 to 95%.

Take `O=C1CN(C(=O)c2c(-c3ccc(Cl)cc3F)cc(C(F)(F)F)n2Cc2ccccc2)CCN1` [SC-89, 4-[1-Benzyl-3-(4-chloro-2-fluoro-phenyl)-5-(trifluoromethyl)-1H-pyrrole-2-carbonyl]-piperazin-2-one]: the inhibition at 3 µM lay in the range of 75 to 95%.

For the compound `Cc1c(-c2ccc(Cl)cc2)c(C(=O)N(C)CCS(C)(=O)=O)n(Cc2ccccc2)c1C(F)(F)F` [SC-06, 1-Benzyl-3-(4-chlorophenyl)-N,4-dimethyl-N-(2-methylsulfonyl-ethyl)-5-(trifluoromethyl)-1H-pyrrole-2-carboxylic acid amide], the inhibition at 3 µM is above 95%.

With `Cc1c(-c2ccc(Cl)cc2F)c(C(=O)N(C)CC(C)(C)O)n(Cc2ccccc2)c1C(F)(F)F` [SC-58, 1-Benzyl-3-(4-chloro-2-fluoro-phenyl)-N-(2-hydroxy-2-methyl-propyl)-N,4-dimethyl-5-(trifluoromethyl)-1H-pyrrole-2-carboxylic acid amide], the inhibition at 3 µM is above 95%.
